We go through two compounds from patent publication US20110166142A1, “2-SUBSTITUTED ISOFLAVONOID COMPOUNDS, MEDICAMENTS AND USES” (priority 2007, published 2011).

For orientation: EC50 means the concentration at which the effect is half-maximal.

Experiment [1] in a line: Free radical scavenging (DPPH). Conditions: for EC50: 0.1 mM DPPH in ethanol, 20 minutes, absorbance 517 nm, concentration causing 0.6 change in absorbance, read-out: Free radical scavenging ability EC50; for free radical scavenging activity: DPPH. As for the experimental part:
The antioxidant (free radical trapping) activity of test compounds was assessed using the stable free radical compound 2,2-diphenyl-1-picrylhydrazyl (DPPH). A stock solution of DPPH was prepared at a concentration of 0.1 mM in ethanol and mixed for 10 minutes prior to use. Test compounds at a concentration of 100 μM were reacted with DPPH for 20 minutes, after which time the absorbance at 517 nm was determined and the change in absorbance compared to a reagent blank (DPPH with ethanol alone). A dose response curve was produced for those compounds with free radical scavenging activity (ΔAbs>0.3) at 100 μM. The IC50 value was estimated as the concentration of test compound that caused a 0.6 change in absorbance (with 1.2 absorbance units representing total scavenging of the DPPH radical).

For the next experiment, the system named is LPS-induced NO synthesis. Briefly: LPS-induced NO (nitrite) production in RAW 264.7 macrophages (Griess Reaction). The format is cell-based, mouse. Conditions: 10 μM; FIG. 3. As for the experimental part: The mouse macrophage cell line RAW 264.7 was cultured in DMEM supplemented with foetal bovine serum (FBS), 2 mM glutamine and 50 U/ml penicillin/streptomycin (pen/strep). Cells were treated with either test compound (in 0.025% DMSO) or vehicle alone, and added one hour before 50 ng/ml LPS. After incubation for 24 hrs, culture media was collected for PGE2 or TXB2 measurement by ELISA (Cayman Chemical). The effect of test compounds at 10 μM on cell viability was examined using an MTT assay.
Nitrite concentration is a quantitative indicator of NO production (Wang et al. 2002) and was determined by the Griess Reaction (Coligan et al. 1994). Briefly, 100 μL of Griess reagent was added to 50 μL of each supernatant in duplicate in two separate assays, run as for the examination of PGE2 etc. The absorbance at 550 nm was measured, and nitrite concentrations were determined against a standard curve of sodium nitrite.
A general note: Griess reagent forms a coloured azo dye with nitrite.

On to `Oc1ccc([C@H]2COc3cc(O)ccc3C2)cc1` [Eq, equol, reference compound], for which, in experiment [1], the EC50 was greater than 100 µM and the “free radical scavenging activity” value is reported as “not active”. Moreover, in the experiment with LPS-induced NO synthesis, the “production of nitrite by macrophages stimulated by LPS” value is reported as “did not inhibit”.

As to `Oc1ccc(C2=Cc3ccc(O)cc3OC2)cc1` [Compound 37-DHE, reference compound], in experiment [1], the half-maximal effective concentration (EC50) was 55.1 µM and the “free radical scavenging activity” value was “only low activity”. For the same compound, in the experiment with LPS-induced NO synthesis, the “production of nitrite by macrophages stimulated by LPS” value is given as “did not inhibit”.
